Source: PubChem BioAssay AID248 (DTP/NCI, 2004)
Several values for one entry are separate records, joined by “and”; a condition that tells them apart may be missing. Equal values may be shown once. Toxic doses and inconclusive results are not listed. Rule as the data show it: active = T/C of 150% or more; inactive = T/C below 125%.

Tested on: L1210 leukemia ip in BDF1 mice, survival T/C
Assay: NCI In Vivo Anticancer Drug Screen. Data for tumor model L1210 Leukemia (intraperitoneal) in B6D2F1 (BDF1) mice
Conditions: endpoint: mean survival time, higher = longer survival
Method in brief: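 Value reflects the ratio of survival in compound-treated mice to survival in vehicle-treated controls, with both groups carrying the same transplanted tumor.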

[1] = dose: 100.0 mg/kg/injection, schedule: Q01DX009 (ip), vehicle: saline with Tween-80
[2] = dose: 200.0 mg/kg/injection, schedule: Q01DX009 (ip), vehicle: saline with Tween-80
[3] = dose: 400.0 mg/kg/injection, schedule: Q01DX009 (ip), vehicle: saline with Tween-80
[4] = dose: 100.0 mg/kg/injection, schedule: Q01DX009 (ip), vehicle: Klucel (hydroxypropylcellulose) (HPC)
[5] = dose: 100.0 mg/kg/injection, schedule: Q04DX003 (ip), vehicle: Klucel (hydroxypropylcellulose) (HPC)
[6] = dose: 200.0 mg/kg/injection, schedule: Q01DX009 (ip), vehicle: Klucel (hydroxypropylcellulose) (HPC)
[7] = dose: 200.0 mg/kg/injection, schedule: Q04DX003 (ip), vehicle: Klucel (hydroxypropylcellulose) (HPC)
[8] = dose: 100.0 mg/kg/injection, schedule: Q04DX003 (ip), vehicle: saline with Tween-80
[9] = dose: 200.0 mg/kg/injection, schedule: Q04DX003 (ip), vehicle: saline with Tween-80
[10] = dose: 400.0 mg/kg/injection, schedule: Q04DX003 (ip), vehicle: saline with Tween-80
[11] = dose: 50.0 mg/kg/injection, schedule: Q01DX001 (ip), vehicle: saline
[12] = dose: 100.0 mg/kg/injection, schedule: Q01DX001 (ip), vehicle: saline
[13] = dose: 100.0 mg/kg/injection, schedule: Q04DX003 (ip), vehicle: saline
[14] = dose: 200.0 mg/kg/injection, schedule: Q01DX001 (ip), vehicle: saline
[15] = dose: 400.0 mg/kg/injection, schedule: Q01DX001 (ip), vehicle: saline
[16] = dose: 100.0 mg/kg/injection, schedule: Q01DX001 (ip), vehicle: carboxymethylcellulose (CMC)
[17] = dose: 200.0 mg/kg/injection, schedule: Q01DX001 (ip), vehicle: carboxymethylcellulose (CMC)
[18] = dose: 400.0 mg/kg/injection, schedule: Q01DX001 (ip), vehicle: carboxymethylcellulose (CMC)
[19] = dose: 50.0 mg/kg/injection, schedule: Q01DX009 (ip), vehicle: saline
[20] = dose: 100.0 mg/kg/injection, schedule: Q01DX009 (ip), vehicle: saline
[21] = dose: 200.0 mg/kg/injection, schedule: Q01DX009 (ip), vehicle: saline
[22] = dose: 100.0 mg/kg/injection, schedule: Q01DX001 (ip), vehicle: saline with Tween-80
[23] = dose: 200.0 mg/kg/injection, schedule: Q01DX001 (ip), vehicle: saline with Tween-80
[24] = dose: 400.0 mg/kg/injection, schedule: Q01DX001 (ip), vehicle: saline with Tween-80

Measured: T/C

Oc1ccccc1C=NCCN=Cc1ccccc1O
inactive: [1] 90 % of control | [2] 92 % of control | [3] 92 % of control

Cc1cccc(NC(=O)CCl)c1C
inactive: [4] 100 % of control | [5] 100 % of control | [6] 87 % of control | [7] 100 % of control

Nc1ccc(S(=O)O)cc1
inactive: [1] 94 % of control | [8] 105 % of control | [2] 91 % of control | [9] 95 % of control | [3] 94 % of control | [10] 91 % of control

CCOC(=O)c1cc(N(CCOS(C)(=O)=O)CCOS(C)(=O)=O)ccc1N
inactive: dose: 1.8 mg/kg/injection, schedule: Q01DX015 (ip), vehicle: saline 95 % of control | dose: 2.0 mg/kg/injection, schedule: Q01DX015 (ip), vehicle: saline 89 % of control | dose: 3.0 mg/kg/injection, schedule: Q01DX015 (ip), vehicle: saline 106 % of control | dose: 5.0 mg/kg/injection, schedule: Q01DX001 (ip), vehicle: saline 116 % of control | dose: 7.0 mg/kg/injection, schedule: Q01DX015 (ip), vehicle: saline 90 % of control

CCC(=O)c1ccc(OC(C)=O)c(OC(C)=O)c1
inactive: [11] 101 % of control | [12] 101 % of control | [13] 100 % of control | [14] 109 % of control | dose: 200.0 mg/kg/injection, schedule: Q04DX003 (ip), vehicle: saline 97 % of control | [15] 97 % of control | dose: 400.0 mg/kg/injection, schedule: Q04DX003 (ip), vehicle: saline 100 % of control

CCS(=O)(=O)c1ccc(NC(=O)OC2CC(C)CCC2C(C)C)cc1 (stereo not given)
inactive: [16] 100 % of control | [17] 102 % of control | [18] 91 % of control

ClC1OCCOC1Cl (stereo not given)
inactive: [19] 102 % of control | [20] 91 % of control | [13] 92 % of control | [21] 100 % of control

Cc1cc(O)c(C)c(C(=O)O)c1
inactive: [16] 98 % of control | [17] 106 % of control | [18] 98 % of control

O=C(O)COc1cc(F)c(Cl)cc1Cl
inactive: [4] 100 % of control | [6] 90 % of control

c1ccc(CC[P+](c2ccccc2)(c2ccccc2)c2ccccc2)cc1
inactive: dose: 0.78 mg/kg/injection, schedule: Q01DX009 (ip), vehicle: Klucel (hydroxypropylcellulose) (HPC) 97 % of control | dose: 1.56 mg/kg/injection, schedule: Q01DX009 (ip), vehicle: Klucel (hydroxypropylcellulose) (HPC) 96 % of control | dose: 3.13 mg/kg/injection, schedule: Q01DX009 (ip), vehicle: Klucel (hydroxypropylcellulose) (HPC) 92 % of control | dose: 12.5 mg/kg/injection, schedule: Q04DX003 (ip), vehicle: Klucel (hydroxypropylcellulose) (HPC) 101 % of control | dose: 25.0 mg/kg/injection, schedule: Q04DX003 (ip), vehicle: Klucel (hydroxypropylcellulose) (HPC) 103 % of control

CCCCCCCCCCCCCC=C(C)C
inactive: [22] 94 % of control | [23] 94 % of control | [24] 87 % of control

CC1COCC(C)N1 (stereo not given)
inactive: dose: 25.0 mg/kg/injection, schedule: Q01DX009 (ip), vehicle: saline 101 % of control | [19] 93 % of control | [20] 90 % of control | [21] 90 % of control | dose: 400.0 mg/kg/injection, schedule: Q01DX009 (ip), vehicle: saline 92 % of control

CN(C)CCc1ccc(Nc2ccnc3cc(Cl)ccc23)cc1
inactive: dose: 75.0 mg/kg/injection, schedule: Q01DX001 (ip), vehicle: saline 101 % of control | dose: 150.0 mg/kg/injection, schedule: Q01DX001 (ip), vehicle: saline 98 % of control | dose: 300.0 mg/kg/injection, schedule: Q01DX001 (ip), vehicle: saline 95 % of control

O=c1c(Cl)c(C(Cl)(Cl)Cl)c2ccccc2n1O
inactive: [5] 101 % of control | [7] 86 % of control

O=C(N/N=C\c1cc(Cl)cc(Cl)c1O)c1cccnc1
inactive: [4] 100 % of control | [6] 89 % of control

CC(=O)C1CCCC1=O (stereo not given)
inactive: dose: 100.0 mg/kg/injection, schedule: Q01DX001 (ip), vehicle: acetone 103 % of control | dose: 100.0 mg/kg/injection, schedule: Q04DX003 (ip), vehicle: acetone 97 % of control | dose: 200.0 mg/kg/injection, schedule: Q01DX001 (ip), vehicle: acetone 97 % of control | dose: 200.0 mg/kg/injection, schedule: Q04DX003 (ip), vehicle: acetone 97 % of control | dose: 400.0 mg/kg/injection, schedule: Q01DX001 (ip), vehicle: acetone 95 % of control | dose: 400.0 mg/kg/injection, schedule: Q04DX003 (ip), vehicle: acetone 95 % of control

CCC(C)Sc1ccc(C)cc1 (stereo not given)
inactive: dose: 75.0 mg/kg/injection, schedule: Q01DX009 (ip), vehicle: Klucel (hydroxypropylcellulose) (HPC) 98 % of control | dose: 150.0 mg/kg/injection, schedule: Q01DX009 (ip), vehicle: Klucel (hydroxypropylcellulose) (HPC) 102 % of control | dose: 300.0 mg/kg/injection, schedule: Q01DX009 (ip), vehicle: Klucel (hydroxypropylcellulose) (HPC) 93 % of control

CN(C)CCCN1c2ccccc2Sc2ccc(F)cc21
inactive: dose: 3.12 mg/kg/injection, schedule: Q04DX003 (ip), vehicle: saline 94 % of control | dose: 6.25 mg/kg/injection, schedule: Q04DX003 (ip), vehicle: saline 97 % of control | dose: 12.5 mg/kg/injection, schedule: Q04DX003 (ip), vehicle: saline 108 % of control | dose: 25.0 mg/kg/injection, schedule: Q04DX003 (ip), vehicle: saline 111 % of control

CC/C=C\CCCCCCO
inactive: [16] 97 % of control and 94 % of control | [17] 94 % of control | [18] 89 % of control and 97 % of control

CCOc1ccc(NC(=O)Oc2ccc(C(=O)OC)cc2)cc1
inactive: [22] 93 % of control | [1] 101 % of control and 103 % of control | dose: 100.0 mg/kg/injection, schedule: Q04DX002 (ip), vehicle: saline with Tween-80 103 % of control and 92 % of control | [8] 105 % of control | [23] 91 % of control | [2] 100 % of control and 103 % of control | dose: 200.0 mg/kg/injection, schedule: Q04DX002 (ip), vehicle: saline with Tween-80 95 % of control and 92 % of control | [9] 103 % of control | [24] 91 % of control | [3] 93 % of control and 94 % of control | dose: 400.0 mg/kg/injection, schedule: Q04DX002 (ip), vehicle: saline with Tween-80 103 % of control | [10] 105 % of control

COSc1ccc([N+](=O)[O-])cc1[N+](=O)[O-]
inactive: [8] 96 % of control | [9] 100 % of control | [10] 103 % of control

Nc1nc(N)c(NC/C=C\c2ccc([N+](=O)[O-])cc2)c(-c2ccccc2)n1
inactive: [11] 91 % of control | [12] 97 % of control | [14] 103 % of control | [15] 109 % of control

O=C(NC(Cc1ccccc1)C(=O)Oc1cc(Cl)c(Cl)cc1Cl)OCc1ccccc1 (stereo not given)
inactive: dose: 100.0 mg/kg/injection, schedule: Q01DX001 (ip), vehicle: other 91 % of control | dose: 200.0 mg/kg/injection, schedule: Q01DX001 (ip), vehicle: other 91 % of control | dose: 400.0 mg/kg/injection, schedule: Q01DX001 (ip), vehicle: other 97 % of control

CC(C)N(N=O)C(C)C
inactive: [11] 104 % of control | [12] 104 % of control | [14] 102 % of control | [15] 98 % of control

N#C/C(=C\c1cccs1)c1ccccc1
inactive: dose: 50.0 mg/kg/injection, schedule: Q04DX003 (ip), vehicle: Klucel (hydroxypropylcellulose) (HPC) 110 % of control | [5] 98 % of control | [7] 104 % of control

Cc1cc(C)c2c(c1)C/C2=N/N=C1/Cc2cc(C)cc(C)c21
inactive: dose: 50.0 mg/kg/injection, schedule: Q04DX002 (ip), vehicle: Klucel (hydroxypropylcellulose) (HPC) 120 % of control | dose: 100.0 mg/kg/injection, schedule: Q04DX002 (ip), vehicle: Klucel (hydroxypropylcellulose) (HPC) 100 % of control | dose: 200.0 mg/kg/injection, schedule: Q04DX002 (ip), vehicle: Klucel (hydroxypropylcellulose) (HPC) 92 % of control
